Experiments:
[1] = test system: CHO-S cell line expressing rIX-FP; experiment: Flask productivity assay (Experiment 1): FIX activity, FIX antigen; assay type: cell-based, Chinese hamster; conditions: for Ratio (activity/antigen) / Activity (Factor IX activity) / Antigen (Factor IX antigen): double addition; for Activity (Factor IX activity) / Antigen (Factor IX antigen): 50 ng/ml, mean of duplicate flasks
Method: (§1) Cell counts were performed utilising the Innovartis Cedex automated cell counter in accordance with the manufacturers instructions. Glucose, lactate, ammonia and glutamine assays were performed utilising the Yellow Springs Instruments (YSI) 7100 analyser in accordance with the manufacturers instructions. Off-line determination of dissolved carbon dioxide concentrations were performed using the RapidLab 248 Blood Gas Analyser from Siemens (formerly Bayer) in accordance with the manufacturer's instructions. Antigen assay was performed using an internal procedure ELISA for Quantitation of Factor IX Antigen. The Factor IX Activity assay was performed using the “BIOPHEN FIX” chromogenic FIX test. Sampling was performed daily from the point of inoculation for all assays.
The Flask productivity assay was performed as described below.
A CHO-S cell line expressing rIX-FP was used and cultured in an alternative commercially obtainable serum-free chemically defined medium specifically designed for the production of recombinant proteins in CHO cells (“Medium B”) with 8 mM L-glutamine. In the N−1 and N (with N being the last passage number) passage 50 ng/ml MSB was added. Another addition was performed at 48 hours post inoculation. Cultures were inoculated at 2×10^5 viable cells/mL at a 30 mL volume in a 125 mL shake flask, cultured at 37 C, 5% CO2, 125 rpm in a humidified incubator (Multitron, Infors HT). Samples were assayed for cell density, cell viability, rIX-FP activity and antigen content.
Experiment 1 was performed to assess the effect of reduced MSB on culture performance compared to additions of MSB in a flask format. The cells were subjected to the standard flask productivity assay with assays for cell density, Factor IX antigen and Factor IX activity performed.

[2] = test system: rIX-FP CHO-K1 clone; experiment: Reactor fed-batch culture (Experiment 2): rIX-FP activity, antigen, cell growth; assay type: cell-based, Chinese hamster; conditions: for Activity (total active produced) / Antigen (total antigen produced) / viable cell densities / growth profile / Ratio (active molecule to antigen): fed-batch; for Activity (total active produced) / Antigen (total antigen produced): Medium A, approx. 4 L; for Activity (total active produced) / Antigen (total antigen produced) / Ratio (active molecule to antigen): up to 192 hour post inoculation; for viable cell densities / growth profile: reduced versus non-reduced MSB
Method: The medium used for the propagation was a commercially obtainable serum-free chemically defined medium specifically designed for the production of recombinant proteins in CHO cells: “Medium A”. The clones utilised the Lonza glutamine synthetase (GS) system and were passaged in the absence of glutamine with selection maintained by 25 uM methionine sulfoximine (MSX). In the last culture stage, used for productivity measurement, both glutamine and MSX were not added to the medium.
Vitamin K is essential to the cell for the production of active recombinant Factor IX, due to the Vitamin K-dependent gamma-carboxylation of the molecule. In experiments describing the present invention Vitamin K3 in the form of Menadione sodium bi-sulphate (MSB, Sigma) was chosen as the source of Vitamin K as this form is water soluble and thus readily accessible to the cell. Addition of MSB occurred daily at a concentration of 50 ng/ml.
Due to the inherent unstable nature of the reduced MSB, quantification of exact concentrations of the reduced MSB was not available at the time of experimentation. Therefore all stated concentrations of reduced MSB are calculated values derived from the starting concentration of MSB at the commencement of the reduction process. It is anticipated that the actual reduced MSB concentration is less than the calculated amount due to some small losses occurring through the reduction process.
The reactors were Sartorius/Braun 5 L dished bottom glass reactors, with a single Rushton Impeller for agitation and a ring sparger. All reactor cultures were performed under the following conditions unless otherwise stated.
as §1
Under reactor fed-batch conditions a rIX-FP CHO-K1 clone was cultivated under the standard conditions. This experiment assessed the cell growth, antigen production and active rIX-FP production from the cell under either MSB addition or reduced MSB addition. The feed utilised in this experiment was glucose based (100 g/l) supplemented with the following amino acids: • ? Asparagine at 21.4 g/L; • ? Cysteine at 5.6 g/L; • ? Aspartic acid at 5 g/L.
The reactor test conditions were Reactor A4 utilising a non-reduced MSB addition and Reactor B4 utilising a reduced MSB addition. In both reactors Medium A was used as described in Example 4.

[3] = test system: CHO-K1 clone A5 (rIX-FP); experiment: Extended draw-fill reactor culture (Experiment 3): rIX-FP activity, antigen, cell growth; assay type: cell-based, Chinese hamster; conditions: for Ratio / Activity / Antigen: extended draw-fill; for Activity / Antigen: approx. 7 L
Method: as §1
The CHO-K1 clone A5 was cultivated under extended draw-fill conditions with two media, Media A and yet another commercially obtainable serum-free chemically defined medium specifically designed for the production of recombinant proteins in CHO cells: Media C. While comparing the performance of the media, the effect of the addition of MSB or reduced MSB was assessed (Table 5). As with previous experiments the outputs from this investigation were growth parameters of the cell and the production of active rIX-FP molecule and rFIX-FP antigen.

[4] = test system: CHO-S cells expressing albumin fused Factor VII; experiment: Specific activity of albumin-fused Factor VII expressed in bioreactor culture (Experiment 6); assay type: cell-based, Chinese hamster; conditions: albumin-fused FVII; 50 ng/ml increased daily to 250 ng/ml; MSB n = 4, rMSB n = 25
Method: An albumin fused Factor VII was cloned and expressed in CHO-S cells as described in Thromb. Haemost. 2008 April; 99(4):659-67.
Cultivation of mammalian cells occurred under either batch or fed-batch conditions at a starting volume of 3 liters in a 5 liter bioreactor system. Controlled parameters were temperature (37° C.), pH (7.2), agitation (250 rpm) and dissolved oxygen. The medium used was a commercially available, chemically defined media (CD-CHO, Invitrogen) which was supplemented with MSB or rMSP in a starting concentration of 50 ng/ml. Each day the concentration was increased by 50 ng/ml until on day 5 a maximum concentration of 250 ng/ml was reached, which was then held for the remainder of the cultivation period.
The activity of FVII was determined using a chromogenic assay (COASET® FVII test kit (Chromogenix, 82190063)). The amount of protein was determined via reverse phase HPLC.

[5] = test system: CHO-S cell line expressing rIX-FP; experiment: Flask productivity assay (Experiment 1): FIX activity, FIX antigen; assay type: cell-based, Chinese hamster; conditions: single addition; for Activity (Factor IX activity) / Antigen (Factor IX antigen): 50 ng/ml, mean of duplicate flasks
[6] = test system: gamma carboxylation; conditions: cell free system; cited from earlier work
[7] = test system: Chinese hamster ovary (CHO) cells secreting Factor IX; conditions: cited from earlier work

Molecule	Ratio (activity/antigen) ([1]; 72 hours)	Activity (Factor IX activity) ([1]; 72 hours)	Antigen (Factor IX antigen) ([1]; 72 hours)	Ratio (activity/antigen) ([1]; 96 hours)	Activity (Factor IX activity) ([1]; 96 hours)	Antigen (Factor IX antigen) ([1]; 96 hours)	amount of active rIX-FP ([2]; fed-batch conditions)	Activity (total active produced) [2]	Antigen (total antigen produced) [2]	viable cell densities / growth profile [2]	Ratio (active molecule to antigen) [2]	Ratio ([3]; Medium A)	Activity ([3]; Medium A, 50 ng/ml per day)	Antigen ([3]; Medium A, 50 ng/ml per day)	Ratio ([3]; Medium C)	Activity ([3]; Medium C, 50 ng/ml per day)	Antigen ([3]; Medium C, 50 ng/ml per day)	Specific Activity, Mean [4]	Ratio (activity/antigen) ([5]; 72 hours)	Activity (Factor IX activity) ([5]; 72 hours)	also measured
CC1(S(=O)(=O)[O-])CC(=O)c2ccccc2C1=O.[Na+] (stereo not shown) [MSB, Menadione sodium bisulphite, reference compound]	0.96	431.5	451.5	0.56	649	1155.5	22357 IU	22357 U	49479 U	very similar growth profiles and maximum cell densities	0.45	0.49	28864 U	58987 U	0.52	23570 U	45443 U	313.5 IU/mg	0.57	357.5	activity values as percent of the reduced MSB addition values ([3]; draw-fill, both media types): 94-98%; Antigen (Factor IX antigen) ([5]; 72 hours): 625.5; Ratio (activity/antigen) ([5]; 96 hours): 0.24; Activity (Factor IX activity) ([5]; 96 hours): 629.5; Antigen (Factor IX antigen) ([5]; 96 hours): 2573
Reduced Menadione Sodium Bisulphite [rMSB]	0.93	477	514.5	0.71	902	1271	35444 IU	35444 U	38197 U	very similar growth profiles and maximum cell densities	0.93	0.66	30580 U	46254 U	0.62	24052 U	38528 U	392.6 IU/mg	0.97	500	activity compared with non-reduced MSB additions ([1]; 72 hr): slightly higher than non-reduced MSB additions; activity compared with MSB addition ([1]; 96 hr): greater activity results than that obtained for the MSB addition; antigenic yield ([2]; fed-batch conditions): 38197 IU; antigenic yield as percent of the MSB value ([2]; fed-batch conditions): 77%; increase in active rIX-FP relative to MSB addition ([2]; fed-batch conditions): 59%; cell growth, reduced versus non-reduced MSB ([3]; draw-fill, 50 ng/ml per day): very little difference in relation to cell growth; antigenic material compared to MSB additions ([3]; draw-fill, Medium A): 78%; antigenic material compared to MSB additions ([3]; draw-fill, Medium C): 84%; increase in ratio compared to MSB additions ([3]; draw-fill, depending on media type): 19-35%; Antigen (Factor IX antigen) ([5]; 72 hours): 516; Ratio (activity/antigen) ([5]; 96 hours): 0.86; Activity (Factor IX activity) ([5]; 96 hours): 1070.5; Antigen (Factor IX antigen) ([5]; 96 hours): 1249
Cc1cc(O)c2ccccc2c1O [reduced menadione]																					promotion of gamma carboxylation [6]: inactive in promoting gamma carboxylation
vitamin K																					concentration in cell culture medium at which requirement to elicit active Factor IX reaches saturation [7]: 5 µg/mL
CC1=CC(=O)c2ccccc2C1=O [menadione, 2-methyl-1,4-naphthoquinone]																					promotion of gamma carboxylation [6]: inactive in promoting gamma carboxylation
